Data from US20190054051A1, “DOPA Formulations for Treatments of Parkinson's Disease” (The Board of Trustees of the Leland Stanford Junior …, priority 2017, published 2019).

Experiments:
GRK3 = test: Western blot of GRK3 in intact and lesioned striatum; assay type: in vivo, mice; details: normalized to actin; formulation and ranitidine groups compared with the DOPA-treated group, Bonferroni post-hoc
Protocol: (§1) After behavioral testing, mice again received their assigned injection and then, 45 minutes later, were decapitated under anesthesia. Tissue samples were processed as follows. Briefly, the brain was dissected, rapidly frozen on dry ice, and stored at −80° C. Striatal tissue was collected from 100 μm coronal slices cut at the level of striatum using a cryostat (Leica CM1950, Leica Biosystems Inc, Buffalo Groove, Ill.). Striatal samples from the intact and the lesioned hemisphere were separately collected in 150p1 of lysis solution (Totally RNA, Ambion, Austin, Tex.). Care was taken to make sure that the tissue samples were collected from similar regions in all the brain samples analyzed, since there are differences in the expression of GRKs from rostral to caudal CPu. […]
(§2) Western blots were quantified using band densitometry in Image J software (NIH version). […] Results are represented as group mean±SEM and analyzed using one-way or repeated-measures ANOVA (RM-ANOVA), with post hoc Bonferroni tests. The mouse cylinder test was analyzed with RM-ANOVA, with group (DOPA and DOPA-ranitidine formulations) as a between-group factor and saline vs. DOPA treatment as a within-group factor. AIMs scores were analyzed using the Kruskal Wallis test for pre-testing (DOPA injected animals) and the Mann-Whitney U test for the post-testing sessions (DOPA vs DOPA-ranitidine formulations). […]

GRK6 = test: Western blot of GRK6 in intact and lesioned striatum; assay type: in vivo, mice; details: normalized to actin
Protocol: as §1, §2

Akt = test: Western blot of phospho Akt (T308, S473) in striatum; set-up: species or system mice; details: mouse, in vivo
Protocol: After behavioral testing, mice again received their assigned injection and then, 45 minutes later, were decapitated under anesthesia. Tissue samples were processed as follows. Briefly, the brain was dissected, rapidly frozen on dry ice, and stored at −80° C. Striatal tissue was collected from 100 μm coronal slices cut at the level of striatum using a cryostat (Leica CM1950, Leica Biosystems Inc, Buffalo Groove, Ill.). Striatal samples from the intact and the lesioned hemisphere were separately collected in 150p1 of lysis solution (Totally RNA, Ambion, Austin, Tex.). Care was taken to make sure that the tissue samples were collected from similar regions in all the brain samples analyzed, since there are differences in the expression of GRKs from rostral to caudal CPu. Protein concentration was estimated using Bradford reagent (Bio-Rad, Hercules, Calif.). 200m protein was precipitated with 100% methanol and centrifuged at 10000 g for 10 mins in a table top centrifuge. The pellet was re-suspended in 90% methanol and centrifuged for an additional 10 mins at 10000 g. The supernatant was discarded and the pellet was air dried and dissolved in 400 μL of β-mercaptoethanol containing 2× Laemmli sample buffer (Biorad, Hercules, Calif.), for a final concentration of 0.5 mg/mL. These samples were stored at −80° C. until use. Samples were electrophoresed through 10% polyacrylamide gels and transferred on to Immobilon-P PVDF membranes (Millipore, Bedford, Mass.) and processed. […] Western blots were quantified using band densitometry in Image J software (NIH version). […] Results are represented as group mean±SEM and analyzed using one-way or repeated-measures ANOVA (RM-ANOVA), with post hoc Bonferroni tests. The mouse cylinder test was analyzed with RM-ANOVA, with group (DOPA and DOPA-ranitidine formulations) as a between-group factor and saline vs. DOPA treatment as a within-group factor. AIMs scores were analyzed using the Kruskal Wallis test for pre-testing (DOPA injected animals) and the Mann-Whitney U test for the post-testing sessions (DOPA vs DOPA-ranitidine formulations). […]

N[C@@H](Cc1ccc(O)c(O)c1)C(=O)O [L-DOPA, L-3,4-dihydroxyphenylalanine]
GRK3 in the lesioned hemisphere as % expression of the intact side (GRK3): significantly reduced in the lesioned hemisphere | GRK6 in the lesioned hemisphere versus the intact control side (GRK6): Only a marginal degree of down regulation | Akt phosphorylation at Ser473 (Akt): not statistically significant | Akt phosphorylation at Thr308 in the lesioned striatum (Akt): elevated in the lesioned striatum

CN/C(=C\[N+](=O)[O-])NCCSCc1ccc(CN(C)C)o1 [Ranitidine, N-(2-[(5-[(dimethylamino)methyl]furan-2-yl)methylthio]ethyl)-N′-methyl-2-nitroethene-1,1-diamine]
GRK3 in the lesioned hemisphere as % expression of the intact side (GRK3): significantly attenuated | GRK6 in the lesioned hemisphere versus the intact control side (GRK6): enhanced the expression | Akt phosphorylation at Thr308 in the lesioned striatum (Akt): no effect
